Legend:
[1] = molecular target: MAPKAP-K2 (Homo sapiens, UniProt P49137); assay: MAPKAP-K2 enzyme activity inhibition (33P-ATP filter plate kinase assay); assay type: biochemical; settings: MAPKAP-K2 inhibitory activity; assays conducted at typically 1-100 μM; also: key: +: active; ++: more active; +++: very active
Method: [General Procedure for Measurement of MAPKAP-K2 Enzyme Activity Inhibition]
After conducting the reaction for 30 minutes at room temperature, an equivalent volume of a 200 mM phosphoric acid solution was added to suspend the reaction, and 90 μL of the reaction product was adsorbed onto a MultiScreen PH plate (Millipore) and rinsed with a 100 mM phosphoric acid solution. After drying the plate, 30 μL of MicroScint-O (Packard BioScience) was added, and the cpm was measured with a scintillation counter to determine the inhibiting activity. Substrate peptide is […]

[2] = molecular target: CDK-2 (Homo sapiens, UniProt P24941); assay: CDK-2 enzyme activity inhibition (33P-ATP filter plate kinase assay); assay type: biochemical; settings: read-out: CDK-2 inhibition IC50
Source text: [General Procedure for Measurement of CDK-2 Enzyme Activity Inhibition]

Chain of MAPKAP-K2 (P49137 whole entry): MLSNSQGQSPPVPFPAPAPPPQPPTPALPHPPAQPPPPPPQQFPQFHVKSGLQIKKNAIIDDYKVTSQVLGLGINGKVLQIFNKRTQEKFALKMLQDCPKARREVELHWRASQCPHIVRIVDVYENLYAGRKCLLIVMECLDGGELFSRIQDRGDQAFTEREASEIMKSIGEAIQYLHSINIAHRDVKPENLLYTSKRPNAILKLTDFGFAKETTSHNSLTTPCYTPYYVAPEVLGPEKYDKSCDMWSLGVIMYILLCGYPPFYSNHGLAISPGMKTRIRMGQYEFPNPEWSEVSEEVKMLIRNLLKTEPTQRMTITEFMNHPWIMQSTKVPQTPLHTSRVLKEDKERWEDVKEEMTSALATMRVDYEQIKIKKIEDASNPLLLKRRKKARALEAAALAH

SMILES	activity (efficacy against MAPKAP-K2) [1]	IC50 [2]
Cc1c(N[C@H]2CC[C@H](N)CC2)nc2ccnn2c1Nc1ccc(-c2ccc(N(C)C)cc2)cc1 [Compound 314]	+++	< 100 µM
Cc1c(N[C@H]2CC[C@H](N)CC2)nc2ccnn2c1Nc1ccc(-c2cccc(N(C)C)c2)cc1 [Compound 315]	+++	< 100 µM
Cc1c(N[C@H]2CC[C@H](N)CC2)nc2ccnn2c1Nc1ccc(-c2ccc(C#N)cc2)cc1 [Compound 318]	+++	< 100 µM
Cc1c(N[C@H]2CC[C@H](N)CC2)nc2ccnn2c1Nc1ccc(-c2cccc(C#N)c2)cc1 [Compound 319]	+++	< 100 µM
CCOc1ccc(Nc2c(C)c(N(C)C3CCCNC3)nc3ccnn23)cc1 (centres unmarked) [Compound 340]	+	< 100 µM
CCOc1ccc(Nc2c(C)c(N(CC)C3CCCNC3)nc3ccnn23)cc1 (centres unmarked) [Compound 341]	+	< 100 µM
CCS(=O)(=O)c1ccc(-c2ccc(Nc3c(C)c(N[C@H]4CC[C@H](N)CC4)nc4ccnn34)cc2)cc1 [Compound 351]	+++	< 100 µM
Cc1c(N[C@H]2CC[C@H](N)CC2)nc2ccnn2c1Nc1ccc(-c2ccc(CO)cc2)cc1 [Compound 352]	+++	< 100 µM
COCc1cccc(-c2ccc(Nc3c(C)c(N[C@H]4CC[C@H](N)CC4)nc4ccnn34)cc2)c1 [Compound 354]	+++	< 100 µM
CC(=O)c1ccc(-c2ccc(Nc3c(C)c(N[C@H]4CC[C@H](N)CC4)nc4ccnn34)cc2)s1 [Compound 355]	+++	< 100 µM
CCOc1ccc(-c2ccc(Nc3c(C)c(N[C@H]4CC[C@H](N)CC4)nc4ccnn34)cc2)cc1 [Compound 356]	+++	< 100 µM
Cc1csc(-c2ccc(Nc3c(C)c(N[C@H]4CC[C@H](N)CC4)nc4ccnn34)cc2)c1 [Compound 357]	+++	< 100 µM
CCOc1ccc(Nc2c(C)c(N[C@H]3CC[C@H](N)CC3)nc3c(C(=O)Nc4ccccn4)cnn23)cc1 [Compound 359]	++	< 100 µM

Now from value to compound:

activity (efficacy against MAPKAP-K2) [1]	IC50 [2]	SMILES
++	< 100 µM	Cc1c(N[C@H]2CC[C@H](N)CC2)nc2ccnn2c1Nc1ccc(-c2ccccc2Cl)cc1 [Compound 313]
+++	< 100 µM	Cc1c(N[C@H]2CC[C@H](N)CC2)nc2ccnn2c1Nc1ccc(-c2cccc(OC(F)(F)F)c2)cc1 [Compound 316]
+++	< 100 µM	Cc1c(N[C@H]2CC[C@H](N)CC2)nc2ccnn2c1Nc1ccc(-c2ccc(OC(F)(F)F)cc2)cc1 [Compound 317]
+++	< 100 µM	Cc1cccc(-c2ccc(Nc3c(C)c(N[C@H]4CC[C@H](N)CC4)nc4ccnn34)cc2)c1 [Compound 320]
+++	< 100 µM	Cc1ccccc1-c1ccc(Nc2c(C)c(N[C@H]3CC[C@H](N)CC3)nc3ccnn23)cc1 [Compound 321]
++	< 100 µM	Cc1c(N[C@H]2CC[C@H](N)CC2)nc2ccnn2c1Nc1ccc(-c2ccccc2C(F)(F)F)cc1 [Compound 323]
+++	< 100 µM	Cc1c(N[C@H]2CC[C@H](N)CC2)nc2ccnn2c1Nc1ccc(-c2cccc(C(F)(F)F)c2)cc1 [Compound 324]
+++	< 100 µM	Cc1c(N[C@H]2CC[C@H](N)CC2)nc2ccnn2c1Nc1ccc(-c2ccc(C(F)(F)F)cc2)cc1 [Compound 350]
+++	< 100 µM	Cc1c(N[C@H]2CC[C@H](N)CC2)nc2ccnn2c1Nc1ccc(-c2cccc(CO)c2)cc1 [Compound 353]

Source: patent US7557110B2, “Pyrazolo[1,5-A] pyrimidine derivatives” (Teijin Pharma Limited, priority 2003, dated 2009)
